In ChEMBL document CHEMBL3045037, “Insecticidal and Neuroblocking Activities of Acetamiprid and Related Compounds” (J Pestic Sci, 2003):

What was measured:
Periplaneta americana [1] = test: Insecticidal activity against adult male Periplaneta americana (American cockroach) dosed through injection into abdomen assessed as mortality measured 24 hr post dose in presence of 50 ug metabolic inhibitor PB and 50 ug NIA; type: functional
Periplaneta americana [2] = test: Insecticidal activity against adult male Periplaneta americana (American cockroach) dosed through injection into abdomen assessed as mortality measured 24 hr post dose; type: functional
[3] = Lipophilicity, log P of the compound by HPLC based shake flask method; type: physicochemical
[4] = tested on: Abdominal central nerve cord; test: Neuroblocking activity in adult male Periplaneta americana (American cockroach) abdominal central nerve cords assessed as neuroblocking concentration measured at 22 to 25 degC; type: functional
Periplaneta americana [5] = test: Insecticidal activity against adult male Periplaneta americana (American cockroach) dosed through injection into abdomen assessed as mortality measured 24 hr post dose in presence of 50 ug metabolic inhibitor PB; type: functional

Row | Compound | log(1/MLD) (Periplaneta americana [1]) | log(1/MLD) (Periplaneta americana [2]) | logP [3] | log(1/BC) [4] | log(1/MLD) (Periplaneta americana [5])
1 | CCCCN(Cc1ccc(Cl)nc1)/C(C)=N/C#N | 7.71 | <7.01 | 2.13 | 4.48 | –
2 | CC(C)C/C(=N\C#N)N(C)Cc1ccc(Cl)nc1 | 6.9 | <6.3 | 1.75 | <3.3 | <6.3
3 | CC/C(=N\C#N)N(C)Cc1ccc(Cl)nc1 | 8.54 | 7.24 | 1.12 | 5.23 | 7.64
4 | CCCCC/C(=N\C#N)N(C)Cc1ccc(Cl)nc1 | 6.8 | <6.2 | 2.3 | <3.2 | 6.2
5 | C/C(=N\C#N)NCc1ccc(Cl)nc1 | 7.5 | 6.4 | 1.07 | 3.7 | 6.7
6 | CN(Cc1ccc(Cl)nc1)/C(=N/C#N)c1ccccc1 | 6.99 | <6.39 | 1.86 | <3.39 | 6.48
7 | CCCCCN(Cc1ccc(Cl)nc1)/C(C)=N/C#N | 7.8 | <6.9 | 2.37 | 5.01 | –
8 | CCCN(Cc1ccc(Cl)nc1)/C(C)=N/C#N | 8.34 | 7.04 | 1.62 | 5.14 | 7.44
9 | CCCC/C(=N\C#N)N(C)Cc1ccc(Cl)nc1 | 6.77 | <6.37 | 1.87 | <3.37 | <6.37
10 | CCN(Cc1ccc(Cl)nc1)/C(C)=N/C#N | 9.24 | 7.14 | 1.19 | 5.87 | 7.63
11 | C/C(=N\C#N)N(Cc1ccccc1)Cc1ccc(Cl)nc1 | 7.6 | 6.7 | 2.11 | 4.46 | –
12 | O=[N+]([O-])/N=C1\NCCN1Cc1ccc(Cl)nc1 [IMIDACLOPRID] | 10.15 | 8.96 | 0.6 | 5.64 | 9.26
13 | C/C(=N\C#N)N(Cc1ccc(Cl)nc1)C(C)C | 7.67 | 6.78 | 1.46 | 4.47 | –
14 | C=CCN(Cc1ccc(Cl)nc1)/C(C)=N/C#N | 8.07 | 7.07 | 1.56 | 5.46 | –
15 | CN(Cc1ccc(Cl)nc1)/C(Cc1ccccc1)=N/C#N | 6.78 | <6.58 | 2.13 | <3.58 | <6.58
16 | C/C(=N\C#N)N(C)Cc1ccc(Cl)nc1 [ACETAMIPRID] | 9.68 | 8.28 | 0.83 | 6.19 | 8.58
17 | CCC/C(=N\C#N)N(C)Cc1ccc(Cl)nc1 | 7.77 | <6.58 | 1.55 | 3.78 | 6.68
18 | CC(C)/C(=N\C#N)N(C)Cc1ccc(Cl)nc1 | 7.44 | 6.44 | 1.39 | 3.44 | 6.74
